Data as given in patent US20230087140A1, “TREATMENT OF PAIN ASSOCIATED WITH CESAREAN SECTION SURGERY WITH SUSTAINED-RELEASE LIPOSOMAL ANESTHETIC COMPOSITIONS” (Pacira Pharmaceuticals, Inc., priority 2020, published 2023).
Structures can show the parent of a compound that is named as a salt.

Columns and labels:
[1] = cited from earlier work
[2] = tested on: patients undergoing elective cesarean delivery; assay: Randomized double-blind clinical trial, efficacy of TAP block after cesarean delivery (opioid consumption, VAS pain); type: in vivo, human; conditions: mITT
[3] = tested on: patients undergoing elective cesarean delivery; assay: Clinical trial safety: treatment-emergent adverse events through day 14 (safety analysis set)
[4] = TEAEs occurring in >5% of patients in either group
[5] = safety analysis set, through day 14
[6] = treatment-relatedness determined by the investigator

CCCCN1CCCCC1C(=O)Nc1c(C)cccc1C (centres unmarked) [BUPI HCl alone, bupivacaine hydrochloride]
expected duration of action in spinal anesthesia ([1]; 1.4 to 1.6 mL hyperbaric BUPI HCl 0.75%, spinal): ~2 h | duration of analgesia ([1]; standard local anesthetics, TAP block background): 5 to 8 h | percentage of opioid-free patients at 24 hours ([2]; 24 hours): 93.7% | percentage of opioid-free patients at 48 hours ([2]; 48 hours): 50.6% | percentage of opioid-free patients at 72 hours ([2]; 72 hours): 48.6% | percentage of opioid-spared patients at 72 hours ([2]; 72 hours): 24.7% | median time to first opioid rescue ([2]; median): 41.1 h | LSM (SE) AUC0-72 of VAS pain intensity scores through 72 hours ([2]; through 72 hours, hydrochloride): 178.5 (19.78) | TEAE: Back pain [3, 4]: 5 (5.6) number (percentage) | TEAE: Constipation [3, 4]: 4 (4.5) number (percentage) | TEAE: Dizziness [3, 4]: 5 (5.6) number (percentage) | TEAE: Headache [3, 4]: 10 (11.2) number (percentage) | TEAE: Nausea [3, 4]: 11 (12.4) number (percentage) | TEAE: Pruritus [3, 4]: 28 (31.5) number (percentage) | TEAE: Rash [3, 4]: 3 (3.4) number (percentage) | TEAE: Vomiting [3, 4]: 6 (6.7) number (percentage) | Any TEAE [3, 5]: 50 (56.2) number (percentage) | Any treatment-related TEAE [3, 5]: 9 (10.1) number (percentage) | Fatal TEAE [3, 5]: 0 (0.0) number (percentage) | Serious TEAE [3, 5]: 3 (3.4) number (percentage) | Serious TEAEs ([3]; summary of results): ~3% | fatal TEAEs ([3]; summary of results): no fatal TEAEs | patients who experienced a TEAE ([3]; summary of results): 56.2% | Treatment-related TEAE: Back pain [3, 6]: 1 (1.1) number (percentage) | Treatment-related TEAE: Dizziness [3, 6]: 0 (0.0) number (percentage) | Treatment-related TEAE: Dysuria [3, 6]: 1 (1.1) number (percentage) | Treatment-related TEAE: Nausea [3, 6]: 0 (0.0) number (percentage) | Treatment-related TEAE: Pruritus [3, 6]: 8 (9.0) number (percentage) | Treatment-related TEAE: Vomiting [3, 6]: 0 (0.0) number (percentage)
